Read-outs that look alike come from different tables or passages of the source.
Columns and labels:
[1] = type: in vivo, human; conditions: for decrease in mean AUCτ in presence vs absence of isavuconazole / decrease in mean Cmax in presence vs absence of isavuconazole: Part 2, isavuconazole 200 mg; for AUC / Cmax: both, human, plasma, oral; for AUC: AUCτ, day 13 (12 hours), mean (SD); for Cmax: day 13, mean (SD)
MATE1 = conditions: read-out: IC50 MATE1 inhibition; [14C]metformin substrate; ref data on file; cited from earlier work
CYP2C8 [2] = conditions: human liver microsomes; paclitaxel hydroxylation; P < .05; ref data on file; cited from earlier work
[3] = type: in vivo, human; conditions: for AUCτ geometric least-squares mean ratio (90%CI) / Cmax geometric least-squares mean ratio (90%CI): lopinavir/ritonavir plus isavuconazole to isavuconazole alone; for AUC: AUCτ, day 13 (24 hours), mean (SD)
P-gp = conditions: read-out: IC50 P-gp inhibition; [3H]digoxin substrate; ref data on file; cited from earlier work
CYP2B6 [4] = conditions: CYP2B6-expressing human liver microsomes; cited from earlier work
CYP2C8 [5] = conditions: CYP2C8-expressing human liver microsomes; cited from earlier work
[6] = Safety: treatment-emergent adverse events in healthy subjects; type: in vivo, human
CYP2B6 [7] = conditions: human liver microsomes; S-mephenytoin demethylation; P < .01; ref data on file; cited from earlier work
UGT1A9 = conditions: read-out: IC50 for propofol glucuronidation [UGT1A9]; human liver microsomes; cited from earlier work
UGT1A1 = conditions: read-out: IC50 for 17β-estradiol 3-glucuronidation [UGT1A1]; human liver microsomes; cited from earlier work
UGT2B7 = conditions: read-out: IC50 for morphine 3-glucuronidation [UGT2B7]; human liver microsomes; cited from earlier work
CYP3A5 = conditions: CYP3A5-expressing human liver microsomes; cited from earlier work
CYP3A4 [8] = conditions: CYP3A4-expressing human liver microsomes; cited from earlier work
CYP2B6 [9] = conditions: cultured human hepatocytes; cited from earlier work
OCT2 = conditions: [14C]metformin substrate, ref data on file, cited from earlier work
CYP3A7 = conditions: CYP3A7-expressing human liver microsomes; cited from earlier work
CYP3A4 [10] = conditions: cultured human hepatocytes; cited from earlier work
[11] = Part 2, lopinavir/ritonavir plus isavuconazole to lopinavir/ritonavir alone
[12] = Part 2, lopinavir/ritonavir 400/100 mg + isavuconazole 200 mg, n = 16
[13] = Part 2, lopinavir/ritonavir 400/100 mg alone, n = 18

In the case of `Cc1cccc(C)c1OCC(=O)N[C@@H](Cc1ccccc1)[C@@H](O)C[C@H](Cc1ccccc1)NC(=O)[C@H](C(C)C)N1CCCNC1=O` [Lopinavir, lopinavir], the “decrease in mean AUCτ in presence vs absence of isavuconazole” value [1] is reported as 27%, the “decrease in mean Cmax in presence vs absence of isavuconazole” value [1] is reported as 23% and the “AUCτ geometric least-squares mean ratio (90%CI)” value [1, 11] is reported as 73 (56, 96) %. For the same compound, the “Cmax geometric least-squares mean ratio (90%CI)” value [1, 11] was 77 (62, 95) %, the AUC [1, 12] was 73300 ng·h/mL and the AUC [1, 13] was 91000 ng·h/mL.

In the case of `CC(C)c1nc(CN(C)C(=O)N[C@H](C(=O)N[C@@H](Cc2ccccc2)C[C@H](O)[C@H](Cc2ccccc2)NC(=O)OCc2cncs2)C(C)C)cs1` [Ritonavir, ritonavir], the “decrease in mean AUCτ in presence vs absence of isavuconazole” value [1] is reported as 31%, the “decrease in mean Cmax in presence vs absence of isavuconazole” value [1] is reported as 33% and the AUC [1, 12] is reported as 4000 ng·h/mL. For the same compound, the AUC [1, 13] was 5500 ng·h/mL, the Cmax ([1]; Part 2, lopinavir/ritonavir + isavuconazole) was 800 ng/mL and the Cmax ([1]; Part 2, lopinavir/ritonavir alone) was 1200 ng/mL.

In the case of `C[C@@H](c1nc(-c2ccc(C#N)cc2)cs1)[C@](O)(Cn1cncn1)c1cc(F)ccc1F` [Isavuconazole, isavuconazole], the IC50 (MATE1) is listed as 6.31 µM, the “correlation (r) of isavuconazole metabolism with CYP2C8 activity” value (CYP2C8 [2]) is listed as 0.57 and the “AUCτ geometric least-squares mean ratio (90%CI)” value ([3]; Part 1 (isavuconazole 100 mg)) is listed as 213 (174, 262) %. The “Cmax geometric least-squares mean ratio (90%CI)” value ([3]; Part 1 (isavuconazole 100 mg)) was 196 (155, 248) %, the “increase in mean AUCτ in presence vs absence of lopinavir/ritonavir” value ([3]; Part 1, isavuconazole 100 mg) was 113% and the “increase in mean Cmax in presence vs absence of lopinavir/ritonavir” value ([3]; Part 1, isavuconazole 100 mg) was 96%. The “AUCτ geometric least-squares mean ratio (90%CI)” value ([3]; Part 2 (isavuconazole 200 mg)) was 196 (164, 235) %, the “Cmax geometric least-squares mean ratio (90%CI)” value ([3]; Part 2 (isavuconazole 200 mg)) was 174 (146, 208) % and the “increase in mean AUCτ in presence vs absence of lopinavir/ritonavir” value ([3]; Part 2, isavuconazole 200 mg) was 96%. For the same compound, the “increase in mean Cmax in presence vs absence of lopinavir/ritonavir” value ([3]; Part 2, isavuconazole 200 mg) was 74%, the Tmax ([3]; Part 2, isavuconazole 200 mg + lopinavir/ritonavir, day 13, median (range)) was 3.0 (1.0‐4.0) hours and the Tmax ([3]; both, human, plasma, oral, 100 mg) was 3 h. It also gave a Tmax ([3]; both, human, plasma, oral, 200 mg) of 3 h, an AUC ([3]; both, human, plasma, oral, Part 1, isavuconazole 100 mg + lopinavir/ritonavir 400/100 mg BID, n = 6) of 116000 ng·h/mL and an AUC ([3]; both, human, plasma, oral, Part 2, isavuconazole 200 mg + lopinavir/ritonavir 400/100 mg BID, n = 16) of 222000 ng·h/mL. The IC50 (P-gp) was 25.7 µM, the “% remaining” value (CYP2B6 [4]) was greater than 98 % remaining and the “% remaining” value (CYP2C8 [5]) was greater than 98 % remaining. The “subjects who experienced TEAEs” value ([6]; Part 1 (isavuconazole 100 mg), all mild) was 2 (33.3%) n (%), the “TEAEs overall, subjects” value ([6]; Part 2) was 11 (61.1%) n (%) and the “subjects with TEAEs in system organ class gastrointestinal disorders” value ([6]; Part 2, text) was 16.7%. For the same compound, the “correlation (r) of isavuconazole metabolism with CYP2B6 activity” value (CYP2B6 [7]) was 0.65, the IC50 (UGT1A9) was 19 µM and the IC50 (UGT1A1) was 9 µM. For the same compound, the IC50 (UGT2B7) was 44 µM, the “% remaining” value (CYP3A5) was 68.4 % remaining and the “% remaining” value (CYP3A4 [8]) was 33.8 % remaining. For the same compound, the “increase of CYP2B6 activity” value (CYP2B6 [9]) was 13.4 fold, the “increase of CYP2B6 mRNA” value (CYP2B6 [9]) was 11.4 fold and the IC50 (OCT2; read-out: IC50 OCT2 inhibition) was 1.97 µM. The Ki (OCT2; read-out: Ki OCT2 inhibition) was 0.69 µM, the “% remaining” value (CYP3A7) was greater than 98 % remaining and the “increase of CYP3A4 activity” value (CYP3A4 [10]) was 3.4 fold. For the same compound, the “increase of CYP3A4 mRNA” value (CYP3A4 [10]) was 6.4 fold.

Reference: article PMC5297880 (Clinical Pharmacology in Drug Development, 2016)
